# Assay results: ChEMBL document CHEMBL1201862, “PubChem BioAssay data set” (2004)
#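 Exposure lasted 48 hours, with cells grown in 96-well plates and compounds tested at five concentrations. GI50 = concentration required for 50% inhibition of growth.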 Active and inactive are the calls of the source. No stated cut-off is given here; in the data, active = GI50 up to about 1.1 µM and inactive = higher.
# Legend:
# Test in all cases: DTP human tumour cell line panel, 48 h
# ACHN = test system: ACHN
# MDA-MB-435 = test system: MDA-MB-435
# SF-295 = test system: SF-295
# NCI-H226 = test system: NCI-H226
# K562 = test system: K562
# LOX IMVI = test system: LOX IMVI
# RXF 393 = test system: RXF 393
# M14 = test system: M14
# Malme-3M = test system: Malme-3M
# HOP-92 = test system: HOP-92
# PC-3 = test system: PC-3
# EKVX = test system: EKVX
# SK-MEL-28 = test system: SK-MEL-28
# MDA-N = test system: MDA-N
# SNB-19 = test system: SNB-19
# OVCAR-3 = test system: OVCAR-3
# HCT-116 = test system: HCT-116
# A549 = test system: A549
# T47D = test system: T47D
# U-251 = test system: U-251
SMILES,GI50 (ACHN),GI50 (MDA-MB-435),GI50 (SF-295),GI50 (NCI-H226),GI50 (K562),GI50 (LOX IMVI),GI50 (RXF 393),GI50 (M14),GI50 (Malme-3M),GI50 (HOP-92),GI50 (PC-3),GI50 (EKVX),GI50 (SK-MEL-28),GI50 (MDA-N),GI50 (SNB-19),GI50 (OVCAR-3),GI50 (HCT-116),GI50 (A549),GI50 (T47D),GI50 (U-251)
O=c1[nH]c2c(c(=O)[nH]1)SSC2,26.5 µM (inactive),2.04 µM (inactive),18.5 µM (inactive),19.4 µM (inactive),0.74 µM (active),1.34 µM (inactive),14.5 µM (inactive),2 µM (inactive),3.9 µM (inactive),2.51 µM (inactive),24 µM (inactive),21.3 µM (inactive),5.79 µM (inactive),1.66 µM (inactive),25 µM (inactive),19 µM (inactive),3.14 µM (inactive),25.9 µM (inactive),11.2 µM (inactive),11.8 µM (inactive)
Clc1ccc2c(c1)CC1C[N+]3=C(CCCCC3)C1=C2 (stereo not given),> 100 µM (inactive),59.2 µM (inactive),64.1 µM (inactive),69.7 µM (inactive),> 100 µM (inactive),43.3 µM (inactive),> 100 µM (inactive),57.3 µM (inactive),63 µM (inactive),7.1 µM (inactive),42.1 µM (inactive),45.6 µM (inactive),> 100 µM (inactive),94.2 µM (inactive),51.8 µM (inactive),59 µM (inactive),> 100 µM (inactive),30.3 µM (inactive),29.6 µM (inactive),23.7 µM (inactive)
O=C(O)CCC(NC(=O)c1ccc(Nc2nc3cc(C(F)(F)F)ccc3nc2C(=O)O)cc1)C(=O)O (stereo not given),> 100 µM (inactive),> 100 µM (inactive),> 100 µM (inactive),> 100 µM (inactive),> 100 µM (inactive),> 100 µM (inactive),> 100 µM (inactive),> 100 µM (inactive),> 100 µM (inactive),> 100 µM (inactive),> 100 µM (inactive),> 100 µM (inactive),> 100 µM (inactive),> 100 µM (inactive),> 100 µM (inactive),> 100 µM (inactive),> 100 µM (inactive),> 100 µM (inactive),48.3 µM (inactive),> 100 µM (inactive)
O=c1[nH]c(Nc2cccc(C(F)(F)F)c2)nc2[nH]cnc12,> 100 µM (inactive),> 100 µM (inactive),> 100 µM (inactive),> 100 µM (inactive),> 100 µM (inactive),> 100 µM (inactive),> 100 µM (inactive),> 100 µM (inactive),> 100 µM (inactive),> 100 µM (inactive),75.2 µM (inactive),> 100 µM (inactive),> 100 µM (inactive),82.2 µM (inactive),> 100 µM (inactive),> 100 µM (inactive),80 µM (inactive),> 100 µM (inactive),> 100 µM (inactive),> 100 µM (inactive)
C=CCNC1=C2C[C@@H](C)C[C@H](OC)[C@H](O)[C@@H](C)/C=C(\C)[C@H](OC(N)=O)[C@@H](OC)/C=C\C=C(/C)C(=O)NC(=CC1=O)C2=O [TANESPIMYCIN],0.127 µM (active),0.0427 µM (active),0.0745 µM (active),4.49 µM (inactive),0.0405 µM (active),0.0186 µM (active),0.0813 µM (active),0.0214 µM (active),0.0619 µM (active),3.69 µM (inactive),0.047 µM (active),4.01 µM (inactive),0.396 µM (active),0.0199 µM (active),0.525 µM (active),0.115 µM (active),0.0311 µM (active),0.0369 µM (active),0.847 µM (active),0.158 µM (active)
